Experimental data from paper PMC7648750, “In vitro and in vivo BNCT investigations using a carborane containing sulfonamide targeting CAIX epitopes on malignant pleural mesothelioma and breast cancer cells” (Scientific Reports, 2020).

Assays:
AB22 cells = assay: MTT cell vitality assay; format: cell-based, mouse; details: AB22, 24 h, normoxia, Fig. 3
Procedure: (§1) The MTT assay is based on the reduction in the mitochondria of metabolically active cells by succinate dehydrogenase obtaining a precipitation of purple formazan crystal. The assay was carried out using the same protocol reported by Azzi et al[42]. Briefly, AB22, ZL34 and MCF7 cells were seeded at a density of 7 × 10^3, 5 × 10^3 and 1 × 10^4 cells per well, respectively, in a 96-well microtiter plate. After 24 h at 37 °C and 5% CO2, they were incubated with increasing concentration of CA-SF or AZ for 24 h in a condition of normoxia at 37 °C and 5% CO2 by adding stock solutions in dimethyl sulfoxide (DMSO). In all the conditions the concentration of DMSO during the cell incubation was maintained under 0.25% (v/v) in cell medium. After the incubation, the medium was removed and each well was incubated with thiazolyl blue tetrazolium bromide (Sigma) dissolved in the medium at a concentration of 0.45 mg/mL for 4 h at 37 °C and 5% CO2. Then, after medium elimination, 150 µL of DMSO were added into each well to solubilise the formazan salt crystals produced by the metabolism of live cells and the microplate was incubated at room temperature (RT) for 30 min. Finally, absorbance was measured at 570 nm using an iMark microplate reader (Biorad). Cell vitality was reported as the percentage of […] cells observed in the treated samples relative to that observed in the non-treated control cells.

MCF7 cells = assay: MTT cell vitality assay; format: cell-based, human; details: MCF7, 24 h, normoxia, Fig. 3
Procedure: as §1

ZL34 cells = assay: MTT cell vitality assay; format: cell-based, human; details: ZL34, 24 h, normoxia, Fig. 3
Procedure: as §1

[1] = clinical applications; no reference given; cited from earlier work

Compound | percentage of viable cells with increasing concentration (MTT) (AB22 cells) | percentage of viable cells with increasing concentration (MTT) (MCF7 cells) | percentage of viable cells with increasing concentration (MTT) (ZL34 cells) | boron concentration ratio between tumour and normal tissues [1]
CC(=O)Nc1nnc(S(N)(=O)=O)s1 [AZ, 5-acetamido-1,3,4-thiadiazole-2-sulfonamide, reference compound] | negligible | negligible | negligible | 
N[C@@H](Cc1ccc(B(O)O)cc1)C(=O)O [BPA, L-para-boronphenylalanine] |  |  |  | 3–5
sodium mercaptoundecaidro-closo-dodecaborate [BSH] |  |  |  | 3–5
